Assay results taken from US20160010138A1, “RAPID DETERMINATION OF MICROBIAL DROWTH AND ANTIMICROBIAL SUSEPTABILITY” (priority 2013, published 2016).
Read-outs that look alike come from different tables or passages of the source.

Key:
[1] = tested on: Acinetobacter spp. (ABCC); assay: MADM system resistance phenotype tests on respiratory specimens; format: cell-based, Acinetobacter sp.
Description: (§1) These specimens were prepped for introduction into the MADM system. The system performed quantitative ID for Staphylococcus aureus (STAU), Pseudomonas aeruginosa (PSAE), and Acinetobacter spp. (ABCC). Concurrent quantitative culture was performed on specimens. The MADM system performed resistance phenotype tests on STAU-containing specimens for cefoxitin (FOX) MRSA phenotyping and clindamycin (CLI) resistance. The system tested ABCC- and PSAE-containing specimens for amikacin (AN) and imipenem (IMP) resistance.
(§2) Specimen preparation used a brief procedure to release bacteria, reduce imaging background, and suspend bacteria in a low ionic strength buffer. […] The remaining 62 specimens were tested using the MADM system.
(§3) 20 μL samples of prepared specimen were pipetted into independent flowcell channels and a low-voltage electrical field was applied for 5 minutes. The electrical field concentrated bacteria onto a functional surface coating that immobilized the bacteria on the lower flowcell surface. Each flowcell channel received only one type of test reagent solution that contained a selective agent if required (only for channels used to test AB, sulbactam 32 μg/mL).
(§4) The instrument acquired images at 10-minutes intervals for 180 minutes, using 10 fields of view in each flowcell channel through a 20× objective. Imaging used darkfield illumination. Identification variables included response to selective agents (AB with sulbactam), cell morphology, growth morphology, and growth rate.
(§5) Identification algorithms applied to each individual immobilized bacterial cell. The system measured the amount of change in mass over time to compute growth rates. Identification consisted of computing and combining probability scores for morphology, response to selective media, and growth rates to produce a receiver operating characteristic curve (ROC) to derive classification criteria.

[2] = tested on: Pseudomonas aeruginosa (PSAE); assay: as above; format: cell-based; settings: for resistance phenotype result (S/R), MADM: ID PSAE
Description: as §1, §2, §3, §4, §5

Steno = assay: MADM (BACcel) phenotype/sensitivity by growth analysis, surveillance mini-BAL; format: cell-based, S. maltophilia
Description: (§6) Adult MICU patients with identified surrogate were included within 72 hours of intubation and if anticipated to require MV for >48 h. Moribund state or pregnancy were exclusions. Surveillance mini-BAL (Combicath, Plastimed) was performed on Day 1, 3, 5, 7 and 10 of MV. Samples were split and processed for both a) routine respiratory quantitative microbiological culture and sensitivity assays (>48 h result availability) and b) rapid (<8 hour) flowcell/surface-capture assays using the MADM system. Viable microorganisms were identified using growth analysis enhanced by a focused VAP antibody panel (S. aureus, P. aeruginosa, A. baumannii). Untypable organisms were also reported. Sensitivity was assessed using growth analysis. Attending physicians were blinded to MADM system results.
(§7) BAL sample were prepared, removing debris and separating microorganisms from other sample material. Sample microorganisms were introduced into a multichannel fluidic cassette as described elsewhere herein. Bacteria were concentrated and retained on the lower surface of all flowcells using low-voltage electrical field (5 min) Antibody labeling of bacteria in flowcells was used to aid identification.
(§8) The automated digital microscopy system was used to perform darkfield imaging of 10 fields of view every 10 minutes for 180 minutes in each flowcell channel. Initial epifluorescence imaging was also performed for antibody detection. […] Identification consisted of probability scores based on microorganism morphology and growth rates. Antibody labeling identification data was also incorporated. Observed microorganisms were then classified as STAU, PSAE, or non-target. Antibiotic responses were used to aid identification when appropriate. Quantitation was performed by counting identified microorganisms and computing original specimen CFU/mL.

[3] = tested on: Pseudomonas aeruginosa (PSAE); format: cell-based; settings: ID PSAE, culture result
From the text: A total of 281 de-identified remnant respiratory specimens were collected from hospital and commercial sources. The specimens included 25 endotracheal aspirates (ETA) of unknown age obtained from a specimen vendor. Also included were 230 mini-bronchoalveolar lavage (mini-BAL) and 26 ETA specimens obtained from Denver Health Medical Center (DHMC). DHMC specimens were 7-21 days old. AST results were available for all mini-BAL specimens but not for ETA. Accompanying reports also included semi-quantitative ID used to select 92 bacteria-positive specimens for analysis using the MADM system. Targets included Pseudomonas aeruginosa, Acinetobacter baumannii complex, and Staphylococcus aureus. Controls used standard culturing methods (Cx).
as §1

Enteric = assay: MADM (BACcel) phenotype/sensitivity by growth analysis, surveillance mini-BAL; format: cell-based; settings: Spec# 005-D7, BACcel ID Enteric, 1.26 × 10^5 CFU/ml
Description: as §6
BAL sample were prepared, removing debris and separating microorganisms from other sample material. Sample microorganisms were introduced into a multichannel fluidic cassette as described elsewhere herein. […]
The automated digital microscopy system was used to perform darkfield imaging of 10 fields of view every 10 minutes for 180 minutes in each flowcell channel. […] Quantitation was performed by counting identified microorganisms and computing original specimen CFU/mL.

STAU = assay: as above; format: cell-based, S. aureus
Description: as §6, §7, §8

[4] = tested on: Staphylococcus aureus (STAU); assay: Culture (Cx) / hospital AST comparator on respiratory specimens; format: cell-based; settings: for resistance phenotype result (S/R), Cx: ID STAU, culture result, MRSA by oxacillin
Description: DHMC specimens were 7-21 days old. […] Controls used standard culturing methods (Cx).
(§9) (ABCC). Concurrent quantitative culture was performed on specimens.

[5] = tested on: Staphylococcus aureus (STAU); assay: MADM system resistance phenotype tests on respiratory specimens; format: cell-based; settings: ID STAU, MRSA by FOX
Description: as §9
Specimen preparation used a brief procedure to release bacteria, reduce imaging background, and suspend bacteria in a low ionic strength buffer. […] We rejected 10 samples with heavy interfering background when dilution to OD600=0.3 yielded organism counts inadequate for analysis. We rejected 7 samples for other technical deficiencies. The remaining 62 specimens were tested using the MADM system.
as §3, §4, §5

E. coli = assay: Membrane potential indicator staining; format: cell-based; settings: 10 µg/ml DiBAC4(3), 15 min, room temp
From the text: (§10) Physiologic indicators of active bacteria include indicators of growth, responsiveness to external stimulus, transcription, translation, energy dependent activity, enzyme activity, and an intact permeability barrier. The indicators tested experimentally were grouped according to the following functional categories of physiologic states to which they are responsive, which included indicators of respiratory and metabolic activity, and membrane integrity.
Active bacterial cells maintain a proton gradient across their cell membranes, creating a membrane potential that may be measured using fluorescent dyes. However, the dyes used in this study to evaluate membrane potential are toxic to bacteria and can only be used as an endpoint assay.
DiBAC4(3) (Molecular Probes) is an anionic dye that enters depolarized cells (i.e., cells lacking a membrane potential) and fluoresces in the […] channel when it binds to intracellular proteins or membranes. Using this indicator, 18.5% of an overnight refrigerator stock (control) and 95% of heat-killed E. coli stained with 10 µg/ml DiBAC4(3) after a 15 min incubation period at room temp.

[6] = tested on: Klebsiella pneumoniae (KP) clinical isolates; assay: KPC assay: growth in ertapenem with and without boronic acid inhibitor (MADM); format: cell-based
Description: The bottom surface was coated with poly-L-lysine to immobilize live bacteria.
Clinical isolates of Pseudomonas aeruginosa (PA), Acinetobacter baumannii (AB), and Klebsiella pneumoniae (KP) were tested. […] Test results are expressed as nonsusceptible (NS) or susceptible (S).
Isolates were grown on blood agar, suspended colonies in tryptic soy broth for 2 hours, then centrifuged and resuspended log-phase bacteria in low ionic strength electrokinetic buffer.
MADM system analysis was performed using a 32-channel disposable fluidic cassette (FIG. 4A) to measure growth of immobilized bacteria. […] Klebsiella pneumoniae (KP) clinical isolates were tested for ertapenem (ETP) nonsusceptibility at 16 μg/mL with and without the inhibitors aminophenyl boronic acid (APB) at 300 μg/mL or benzo(b)thiophene-2-boronic acid (BTB) at 50 μg/mL to identify putative KPC-positive strains.
10 μL aliquots of 5E+7 CFU/mL were pipetted into separate flowcells for each isolate and test condition. Microorganisms were electrokinetically concentrated onto the flowcell detection surface with an electrical field to the positively charged lower surface to immobilize cells and yield 10-100 bacteria per field of view (FIG. 4B). […] The system measured growth at 10-minute intervals. […] Growth was evaluated, interpreting results for PA, AB, and KP-ETP as NS if growth had not arrested within 3 hours. […]

[7] = tested on: heat-killed cells and isopropyl alcohol killed cells; assay: Esterase activity indicator fluorescence in killed cells (MADM system); format: cell-based
From the text: as §10
Carboxyfluorescein diacetate/carboxyfluorescein diacetate succinimidyl ester (CFDA/CFDA-SE; Molecular Probes) compounds are converted into amine-reactive fluorescent molecules when cleaved by esterases present within active cells. When CFDA-SE is taken up by live cells, the fluorescent molecule produced by esterase cleavage and amine reaction is retained inside the cell. […] The product formed by uptake and processing of CFDA, on the other hand, should be more “leaky” over time and may exit a dead cell. […] Shorter delay times have not yet been investigated but may be compatible with avoiding false positive results while providing a shorter assay period.

[8] = Spec# 006-D1, BACcel ID Steno, 7.68 × 10^5 CFU/ml
[9] = Spec# 006-D3, BACcel ID Steno, 1.60 × 10^4 CFU/ml
[10] = dyes added immediately after heat or isopropyl alcohol treatment

NCC[C@H](O)C(=O)N[C@@H]1C[C@H](N)[C@@H](O[C@H]2O[C@H](CN)[C@@H](O)[C@H](O)[C@H]2O)[C@H](O)[C@H]1O[C@H]1O[C@H](CO)[C@@H](O)[C@H](N)[C@H]1O [AN, amikacin]
susceptible: susceptibility of all ABCC ([1]; all ABCC-containing respiratory specimens) | susceptibility of all PSAE ([2]; all PSAE-containing respiratory specimens)
S: resistance phenotype result (S/R), MADM ([1]; ABCC-positive specimen (specimen name not given)) | resistance phenotype result (S/R), MADM ([2]; specimen DH 430, Mini-BAL) | resistance phenotype result (S/R), MADM ([2]; specimen DH 554, BAL) | resistance phenotype result (S/R), MADM ([2]; specimen DH 641, Mini-BAL) | resistance phenotype result (S/R), Cx ([3]; specimen DH 430, Mini-BAL) | resistance phenotype result (S/R), Cx ([3]; specimen DH 554, BAL) | resistance phenotype result (S/R), Cx ([3]; specimen DH 641, Mini-BAL)
growth, TZP-: Phenotype, sensitivity (growth in antibiotic) (Steno; [8]) | Phenotype, sensitivity (growth in antibiotic) (Steno; [9])

CC(C)(O/N=C(\C(=O)N[C@@H]1C(=O)N2C(C(=O)[O-])=C(C[n+]3ccccc3)CS[C@H]12)c1csc(N)n1)C(=O)O [CAZ, ceftazidime]
all growth: Phenotype, sensitivity (growth in antibiotic) (Enteric)
growth, TZP-: Phenotype, sensitivity (growth in antibiotic) (Steno; [8]) | Phenotype, sensitivity (growth in antibiotic) (Steno; [9])

CCC[C@@H]1C[C@@H](C(=O)N[C@@H]([C@H]2O[C@H](SC)[C@H](O)[C@@H](O)[C@H]2O)[C@H](C)Cl)N(C)C1 [CLI, clindamycin]
S: resistance phenotype result (S/R), Cx ([4]; specimen DH 425, Mini-BAL) | resistance phenotype result (S/R), Cx ([4]; specimen DH 427, Mini-BAL) | resistance phenotype result (S/R), Cx ([4]; specimen DH 439, Mini-BAL) | resistance phenotype result (S/R), Cx ([4]; specimen DH 440, BAL) | resistance phenotype result (S/R), Cx ([4]; specimen DH 457, BAL) | resistance phenotype result (S/R), Cx ([4]; specimen DH 485, BAL) | resistance phenotype result (S/R), Cx ([4]; specimen DH 509, BAL) | resistance phenotype result (S/R), Cx ([4]; specimen DH 514, Mini-BAL) | resistance phenotype result (S/R), Cx ([4]; specimen DH 543, BAL) | resistance phenotype result (S/R), Cx ([4]; specimen DH 550, BAL) | resistance phenotype result (S/R), Cx ([4]; specimen DH 556, Mini-BAL) | resistance phenotype result (S/R), Cx ([4]; specimen T12, ETA) | resistance phenotype result (S/R), MADM ([5]; specimen DH 425, Mini-BAL) | resistance phenotype result (S/R), MADM ([5]; specimen DH 427, Mini-BAL) | resistance phenotype result (S/R), MADM ([5]; specimen DH 439, Mini-BAL) | resistance phenotype result (S/R), MADM ([5]; specimen DH 440, BAL) | resistance phenotype result (S/R), MADM ([5]; specimen DH 457, BAL) | resistance phenotype result (S/R), MADM ([5]; specimen DH 485, BAL) | resistance phenotype result (S/R), MADM ([5]; specimen DH 509, BAL) | resistance phenotype result (S/R), MADM ([5]; specimen DH 514, Mini-BAL) | resistance phenotype result (S/R), MADM ([5]; specimen DH 543, BAL) | resistance phenotype result (S/R), MADM ([5]; specimen DH 550, BAL) | resistance phenotype result (S/R), MADM ([5]; specimen DH 556, Mini-BAL) | resistance phenotype result (S/R), MADM ([5]; specimen T12, ETA)
MRSA, CLI-R: Phenotype, sensitivity (STAU; Spec# 033-D7, BACcel ID STAU, 6.64 × 10^4 CFU/ml)
(MRSA) CLI-R: Phenotype, sensitivity (STAU; Spec# 008-D7, BACcel ID STAU, 1.11 × 10^6 CFU/ml)

CCCCN1C(=O)C(=CC=Cc2c(O)n(CCCC)c(=O)n(CCCC)c2=O)C(=O)N(CCCC)C1=O [DiBAC4(3)]
95%: cells stained (E. coli; heat-killed E. coli)
18.5%: cells stained (E. coli; overnight refrigerator stock (control) E. coli)

C[C@@H](O)[C@H]1C(=O)N2C(C(=O)O)=C(S[C@@H]3CN[C@H](C(=O)Nc4cccc(C(=O)O)c4)C3)[C@H](C)[C@H]12 [ETP, ertapenem]
fail to grow: growth of susceptible (KPC-negative) strains ([6]; ETP at 16 μg/mL (FIG. 21))
abnormal growth morphology: growth morphology during drug exposure ([6]; KPC clinical isolate, ETP 16 μg/mL, 20 and 90 min of exposure (FIG. 20))

Cc1onc(-c2ccccc2)c1C(=O)N[C@@H]1C(=O)N2[C@@H]1SC(C)(C)[C@@H]2C(=O)O [OXA, oxacillin]
R: resistance phenotype result (S/R), Cx ([4]; specimen DH 439, Mini-BAL) | resistance phenotype result (S/R), Cx ([4]; specimen T12, ETA)
S: resistance phenotype result (S/R), Cx ([4]; specimen DH 425, Mini-BAL) | resistance phenotype result (S/R), Cx ([4]; specimen DH 427, Mini-BAL) | resistance phenotype result (S/R), Cx ([4]; specimen DH 440, BAL) | resistance phenotype result (S/R), Cx ([4]; specimen DH 457, BAL) | resistance phenotype result (S/R), Cx ([4]; specimen DH 485, BAL) | resistance phenotype result (S/R), Cx ([4]; specimen DH 509, BAL) | resistance phenotype result (S/R), Cx ([4]; specimen DH 514, Mini-BAL) | resistance phenotype result (S/R), Cx ([4]; specimen DH 543, BAL) | resistance phenotype result (S/R), Cx ([4]; specimen DH 550, BAL) | resistance phenotype result (S/R), Cx ([4]; specimen DH 556, Mini-BAL)
MSSA: MRSA/MSSA call by oxacillin MIC (hospital AST) ([4]; the one discordant STAU sample)

Carboxyfluorescein diacetate [CFDA]
demonstrated fluorescence: fluorescence of killed cells [7, 10]

carboxyfluorescein diacetate succinimidyl ester [CFDA-SE]
no fluorescence was observed: fluorescence of killed cells ([7]; two hour post-heat-kill delay)
demonstrated fluorescence: fluorescence of killed cells [7, 10]
